Results: ChEMBL document CHEMBL3102833, “Design and synthesis of guanylthiourea derivatives as potential inhibitors of Plasmodium falciparum dihydrofolate reductase enzyme” (Bioorg Med Chem Lett, 2014)

Experiment: Inhibition of Plasmodium falciparum recombinant dihydrofolate reductase expressed in Escherichia coli BL21 (DE3)

Row | SMILES | IC50 [µM]
1 | N=C(N=C(N)N)SCc1cccc(I)c1 | 0.4
2 | N=C(N)/N=C(\N)SCc1cccc(CS/C(N)=N/C(=N)N)c1 | 100
